A short description of data set [1]: Absorption and emission spectra of dye-loaded copolymers F1-F3 and dyes D1-D3. The format is physicochemical. From the text:
Measurements of Absorption and Emission Spectra. The target dye-loaded copolymers F1-F3 were then subject to investigations of their spectroscopic properties in both organic solvents and aqueous solution. […] Attaching to the 120-kDa amphiphilic copolymer drastically enhances the water solubility of BODIPY D1 and chlorin D2 without strong perturbation on the spectroscopic properties. Emission band for F1 and F2 in water remains the same as the ones measured in organic solutions, showing minimal dye-dye interaction is involved in aqueous solution of F1 and F2 at μM concentration. […] This negative result may be because of the inappropriate size of the copolymer backbone. Polymer larger in size may be required to encapsulate large hydrophobic chromophores like the phthalocyanine D3.
General Methods. All chemicals obtained commercially were used as received unless otherwise noted. Reagent-grade solvents (CH2Cl2, THF, methanol) and HPLC-grade water were used as received. NMR data was measured in a solution of CDCl3 unless otherwise noted. Noncommercial compounds 1, 2, and 4 were prepared following literature procedures. Analytical SEC experiments were performed with PLgel 10000 Å SEC column, eluted with ACS grade THF (stabilized with 400 ppm of BHT) at 35° C. with a flow rate at 1 mL/min. Samples were detected with Agilent 1260 infinity refractive index detector. Absorption spectra were measured on Agilent 8453 and Shimadzu UV1800 instruments using dilute (μmolar) solutions of the compound in UV transparent (e.g., quartz) cuvettes versus a solvent blank at room temperature.

Data set [2] can be described thus: Fluorescence quantum yield of F1-F3 and D1-D3. The format is physicochemical. From the text: Fluorescence Quantum Yields. […] […] These comparisons indicate the absence of dye-dye quenching resulting from the aggregation for F1 and F2 in μM aqueous solutions. […] Also, a smaller phthalocyanine skeleton (e.g. with methyl instead of heptyl as peripheral groups) may be encapsulated with the current length of copolymer successfully.

The conditions of data set [3]: aqueous solution, cited from earlier work.
For data set [4] the following is noted: aqueous solution, Hg(II); cited from earlier work.
[5] abbreviates: solvent CH2Cl2, room temperature.
Where [6] appears, read: solvent toluene, room temperature.

Read-outs that look alike come from different tables or passages of the source.

For `Cc1cc(C)c(C2=C3C=CC=[N+]3[B-](F)(F)n3cc(C#CCCCCC(=O)NN)cc32)c(C)c1` [Compound D1, 2-[6-(N-Aminocarbamoyl)hex-1-yn-1-yl]-8-mesityl-4,4-difluoro-4-bora-3a,4a-diaza-s-indacene], in data set [1] (setting [5]), the FWHM was found to be 1628 cm⁻¹, the “emission maximum wavelength (λem max)” value is recorded as 557 nm and the “λabs^max” value is 543 nm. The compound also yielded a Φf in data set [2] (setting [5]) of 0.065.
`Cc1cc(C)c(-c2c3nc(c(-c4ccc(C(=O)NN)cc4)c4ccc(cc5nc(cc6ccc2[nH]6)CC5(C)C)[nH]4)C=C3)c(C)c1` [Compound D2, 5-[4-(N-Aminocarbamoyl)phenyl]-10-Mesityl-18,18-dimethylchlorin]: in data set [1] (setting [5]), the FWHM was 342 cm⁻¹, the “emission maximum wavelength (λem max)” value was 641 nm and the “λabs^max” value was 640 nm. The compound also yielded a Φf in data set [2] (setting [5]) of 0.19.
`CCCCCCCc1cc2c(cc1CCCCCCC)-c1nc-2nc2[nH]c(nc3nc(nc4[nH]c(n1)c1cc(CCCCCCC)c(CCCCCCC)cc41)-c1cc(C#Cc4ccc(CC(=O)NN)cc4)ccc1-3)c1cc(CCCCCCC)c(CCCCCCC)cc21` [Compound D3, 2-[4-(N-Aminocarbamoyl)methylphenylethynyl]-9,10,16,17,23,24-hexaheptylphthalocyanine]: in data set [1] (setting [6]), the FWHM stood at 1113 cm⁻¹, the “emission maximum wavelength (λem max)” value is recorded as 707 nm and the “λabs^max” value turned out to be 702 nm. The Φf in data set [2] (setting [6]) amounted to 0.68.
Regarding `CCN(CC)c1ccc2c(c1)Oc1cc(N(CC)CC)ccc1C21c2ccccc2C(=O)N1N` [Rhodamine-B hydrazide], the “change in absorption or fluorescence spectra” value in data set [3] (Cu(II)) and in data set [4] was “significant change” each time. Moreover, in data set [3], the “Cu(II) concentration at which selective detection was highly sensitive and quantitative” value is on record as 10^−7 M.

(Values after US20230086985A1, “POLYMERIC COMPOUNDS INCLUDING AN ACCEPTOR DYE AND DONOR LUMINOPHORE” (North Carolina State University, priority 2019, published 2023).)
